# Key:
# LNCaP/AR(cs) cells [1] = assay: Endogenous gene transcriptional assay (real-time PCR of androgen responsive genes); assay type: cell-based, human;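 for ORM1 expression, agonist transcription: LNCaP/AR(cs) cells without added R1881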;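 for PLD1 expression, agonist transcription: LNCaP/AR(cs) cells without added R1881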;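 for PSA expression, agonist transcription: LNCaP/AR(cs) cells without added R1881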;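 for SLUG expression, agonist transcription: LNCaP/AR(cs) cells without added R1881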;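 for TMPRSS2 expression, agonist transcription: LNCaP/AR(cs) cells without added R1881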
# Description: Total RNA was isolated using the Aurum™ total RNA isolation kit (BIO-RAD, Hercules, Calif.). RNA (1 μg) was reverse transcribed using the iScript cDNA synthesis kit (BIO-RAD, Hercules, Calif.) to produce cDNA. Real-time PCR was performed using the Applied Biosystems 7900HT instrument and SYBR Green PCR Master Mix (Applied Biosystems, Foster City, Calif.). PCR reactions were performed in 6 μL according to the manufacturer's protocol and a thermocycle protocol of 95° C. for 10 minutes followed by 40 cycles of 95° C. for 15 seconds and 58° C. for 1 minute. Androgen responsive gene (PSA, SLUG, TMPRSS2, STEAP4, FKBP5, ORM1, NOV, FASN, NKX3.1, AMIGO2, BDNF, CAMK2N1, HPGD, NCAPD3, PLD1) expression was normalized to GAPDH expression and expressed relative to vehicle treatment of the parental cell line.
# Gene expression was normalized to GAPDH as described above.
# LNCaP/AR(cs) cells [2] = assay: Proliferation assay (CellTiter-Glo), agonist and antagonist mode; assay type: cell-based, human
# [3] = tested on: LNCaP/AR(cs) xenograft tumors; assay: Tumor xenograft in castrated SHO male mice; assay type: in vivo
# [4] = Table 4A, 1 nM R1881 or 30 μM compound, vehicle=1.00
structure (smiles),measurement,setting,value
CNC(=O)c1ccc(N2C(=S)N(c3cnc(C#N)c(C(F)(F)F)c3)C(=O)C23CCC3)cc1F [ARN-509],NOV gene expression,LNCaP/AR(cs) cells [1]; [4],1.04
same,ORM1 gene expression,LNCaP/AR(cs) cells [1]; [4],0.84
same,PLD1 gene expression,LNCaP/AR(cs) cells [1]; [4],1.04
same,PSA gene expression,LNCaP/AR(cs) cells [1]; [4],1.43
same,SLUG gene expression,LNCaP/AR(cs) cells [1]; [4],1.03
same,STEAP4 gene expression,LNCaP/AR(cs) cells [1]; [4],0.90
same,TMPRSS2 gene expression,LNCaP/AR(cs) cells [1]; [4],1.06
same,"AMIGO2 expression, agonist transcription","LNCaP/AR(cs) cells [1]; −R1881, 0.3 μM",1.14
same,"BDNF expression, agonist transcription","LNCaP/AR(cs) cells [1]; −R1881, 0.3 μM",1.15
same,"CAM2KN1 expression, agonist transcription","LNCaP/AR(cs) cells [1]; −R1881, 0.3 μM",0.90
same,"FASN expression, agonist transcription","LNCaP/AR(cs) cells [1]; −R1881, 0.3 μM",0.46
same,"FKBP5 expression, agonist transcription","LNCaP/AR(cs) cells [1]; −R1881, 0.3 μM",0.99
same,"HPGD expression, agonist transcription","LNCaP/AR(cs) cells [1]; −R1881, 0.3 μM",0.81
same,"NCAPD3 expression, agonist transcription","LNCaP/AR(cs) cells [1]; −R1881, 0.3 μM",0.72
same,"NKX3.1 expression, agonist transcription","LNCaP/AR(cs) cells [1]; −R1881, 0.3 μM",1.11
same,"NOV expression, agonist transcription","LNCaP/AR(cs) cells [1]; −R1881, 0.3 μM",1.12
same,"ORM1 expression, agonist transcription","LNCaP/AR(cs) cells [1]; −R1881, 0.3 μM",1.37
same,"PLD1 expression, agonist transcription","LNCaP/AR(cs) cells [1]; −R1881, 0.3 μM",1.28
same,"PSA expression, agonist transcription","LNCaP/AR(cs) cells [1]; −R1881, 0.3 μM",0.44
same,"SLUG expression, agonist transcription","LNCaP/AR(cs) cells [1]; −R1881, 0.3 μM",0.38
same,"STEAP4 expression, agonist transcription","LNCaP/AR(cs) cells [1]; −R1881, 0.3 μM",0.94
same,"TMPRSS2 expression, agonist transcription","LNCaP/AR(cs) cells [1]; −R1881, 0.3 μM",0.99
same,"AMIGO2 expression, agonist transcription","LNCaP/AR(cs) cells [1]; −R1881, 1 μM",0.69
same,"BDNF expression, agonist transcription","LNCaP/AR(cs) cells [1]; −R1881, 1 μM",0.93
same,"CAM2KN1 expression, agonist transcription","LNCaP/AR(cs) cells [1]; −R1881, 1 μM",0.76
same,"FASN expression, agonist transcription","LNCaP/AR(cs) cells [1]; −R1881, 1 μM",0.40
same,"FKBP5 expression, agonist transcription","LNCaP/AR(cs) cells [1]; −R1881, 1 μM",0.71
same,"HPGD expression, agonist transcription","LNCaP/AR(cs) cells [1]; −R1881, 1 μM",0.56
same,"NCAPD3 expression, agonist transcription","LNCaP/AR(cs) cells [1]; −R1881, 1 μM",0.74
same,"NKX3.1 expression, agonist transcription","LNCaP/AR(cs) cells [1]; −R1881, 1 μM",0.68
same,"NOV expression, agonist transcription","LNCaP/AR(cs) cells [1]; −R1881, 1 μM",1.00
same,"ORM1 expression, agonist transcription","LNCaP/AR(cs) cells [1]; −R1881, 1 μM",1.79
same,"PLD1 expression, agonist transcription","LNCaP/AR(cs) cells [1]; −R1881, 1 μM",0.66
same,"PSA expression, agonist transcription","LNCaP/AR(cs) cells [1]; −R1881, 1 μM",0.49
same,"SLUG expression, agonist transcription","LNCaP/AR(cs) cells [1]; −R1881, 1 μM",0.42
same,"STEAP4 expression, agonist transcription","LNCaP/AR(cs) cells [1]; −R1881, 1 μM",0.77
same,"TMPRSS2 expression, agonist transcription","LNCaP/AR(cs) cells [1]; −R1881, 1 μM",0.64
same,"AMIGO2 expression, agonist transcription","LNCaP/AR(cs) cells [1]; −R1881, 3 μM",0.89
same,"BDNF expression, agonist transcription","LNCaP/AR(cs) cells [1]; −R1881, 3 μM",1.03
same,"CAM2KN1 expression, agonist transcription","LNCaP/AR(cs) cells [1]; −R1881, 3 μM",0.99
same,"FASN expression, agonist transcription","LNCaP/AR(cs) cells [1]; −R1881, 3 μM",0.42
same,"FKBP5 expression, agonist transcription","LNCaP/AR(cs) cells [1]; −R1881, 3 μM",0.91
same,"HPGD expression, agonist transcription","LNCaP/AR(cs) cells [1]; −R1881, 3 μM",0.78
same,"NCAPD3 expression, agonist transcription","LNCaP/AR(cs) cells [1]; −R1881, 3 μM",0.73
same,"NKX3.1 expression, agonist transcription","LNCaP/AR(cs) cells [1]; −R1881, 3 μM",0.73
same,"NOV expression, agonist transcription","LNCaP/AR(cs) cells [1]; −R1881, 3 μM",1.11
same,"ORM1 expression, agonist transcription","LNCaP/AR(cs) cells [1]; −R1881, 3 μM",1.20
same,"PLD1 expression, agonist transcription","LNCaP/AR(cs) cells [1]; −R1881, 3 μM",0.88
same,"PSA expression, agonist transcription","LNCaP/AR(cs) cells [1]; −R1881, 3 μM",0.58
same,"SLUG expression, agonist transcription","LNCaP/AR(cs) cells [1]; −R1881, 3 μM",0.52
same,"STEAP4 expression, agonist transcription","LNCaP/AR(cs) cells [1]; −R1881, 3 μM",1.05
same,"TMPRSS2 expression, agonist transcription","LNCaP/AR(cs) cells [1]; −R1881, 3 μM",1.04
same,"AMIGO2 expression, agonist transcription","LNCaP/AR(cs) cells [1]; −R1881, 10 μM",0.65
same,"BDNF expression, agonist transcription","LNCaP/AR(cs) cells [1]; −R1881, 10 μM",1.03
same,"CAM2KN1 expression, agonist transcription","LNCaP/AR(cs) cells [1]; −R1881, 10 μM",0.78
same,"FASN expression, agonist transcription","LNCaP/AR(cs) cells [1]; −R1881, 10 μM",0.41
same,"FKBP5 expression, agonist transcription","LNCaP/AR(cs) cells [1]; −R1881, 10 μM",0.75
same,"HPGD expression, agonist transcription","LNCaP/AR(cs) cells [1]; −R1881, 10 μM",0.61
same,"NCAPD3 expression, agonist transcription","LNCaP/AR(cs) cells [1]; −R1881, 10 μM",0.74
same,"NKX3.1 expression, agonist transcription","LNCaP/AR(cs) cells [1]; −R1881, 10 μM",0.85
same,"NOV expression, agonist transcription","LNCaP/AR(cs) cells [1]; −R1881, 10 μM",0.98
same,"ORM1 expression, agonist transcription","LNCaP/AR(cs) cells [1]; −R1881, 10 μM",0.97
same,"PLD1 expression, agonist transcription","LNCaP/AR(cs) cells [1]; −R1881, 10 μM",0.65
same,"PSA expression, agonist transcription","LNCaP/AR(cs) cells [1]; −R1881, 10 μM",0.61
same,"SLUG expression, agonist transcription","LNCaP/AR(cs) cells [1]; −R1881, 10 μM",0.56
same,"STEAP4 expression, agonist transcription","LNCaP/AR(cs) cells [1]; −R1881, 10 μM",0.56
same,"TMPRSS2 expression, agonist transcription","LNCaP/AR(cs) cells [1]; −R1881, 10 μM",0.62
same,"AMIGO2 expression, agonist transcription","LNCaP/AR(cs) cells [1]; −R1881, 30 μM",2.41
same,"BDNF expression, agonist transcription","LNCaP/AR(cs) cells [1]; −R1881, 30 μM",1.80
same,"CAM2KN1 expression, agonist transcription","LNCaP/AR(cs) cells [1]; −R1881, 30 μM",1.56
same,"FASN expression, agonist transcription","LNCaP/AR(cs) cells [1]; −R1881, 30 μM",1.30
same,"FKBP5 expression, agonist transcription","LNCaP/AR(cs) cells [1]; −R1881, 30 μM",1.87
same,"HPGD expression, agonist transcription","LNCaP/AR(cs) cells [1]; −R1881, 30 μM",1.86
same,"NCAPD3 expression, agonist transcription","LNCaP/AR(cs) cells [1]; −R1881, 30 μM",1.34
same,"NKX3.1 expression, agonist transcription","LNCaP/AR(cs) cells [1]; −R1881, 30 μM",2.24
same,"NOV expression, agonist transcription","LNCaP/AR(cs) cells [1]; −R1881, 30 μM",2.07
same,"ORM1 expression, agonist transcription","LNCaP/AR(cs) cells [1]; −R1881, 30 μM",1.35
same,"PLD1 expression, agonist transcription","LNCaP/AR(cs) cells [1]; −R1881, 30 μM",1.33
same,"PSA expression, agonist transcription","LNCaP/AR(cs) cells [1]; −R1881, 30 μM",1.13
same,"SLUG expression, agonist transcription","LNCaP/AR(cs) cells [1]; −R1881, 30 μM",1.36
same,"STEAP4 expression, agonist transcription","LNCaP/AR(cs) cells [1]; −R1881, 30 μM",1.01
same,"TMPRSS2 expression, agonist transcription","LNCaP/AR(cs) cells [1]; −R1881, 30 μM",2.78
same,viability at 0.0001 µM,"LNCaP/AR(cs) cells [2]; Homo sapiens, LNCaP/AR, 168 h, read-out: Antagonist Proliferation Assay (% Viability)",< 30%
same,Agonist Proliferation Assay (% Viability),"LNCaP/AR(cs) cells [2]; LNCaP/AR(cs), [Antagonists] = 10 μM, 7 days",+ (‘+’ = <30)
same,Effect on LNCaP/AR(cs) xenograft tumors (Example 1),"[3]; 30 mg/kg QD orally, castrated SHO mice, initial response",induced tumor regression
same,Anti-tumor activity in the LNCaP/AR(cs) model (Example 14),"[3]; 30 mg/kg/day oral gavage, castrate male mice",robust anti-tumor activity
